Source: US9937145B2, “Sulfamate derivative compound for use in preventing or treating epilepsy” (Bio-Pharm Solutions Co., Ltd., priority 2013, dated 2018)

Key:
Format in all cases: in vivo
male SD rats = experiment: MES test (anti-epilepsy activity), rats, oral (rMES po); conditions: for ED50: Rattus norvegicus, rats, at peak time
Experimental: (§1) Biological Experimental Example. 1: Measurement of Anti-Epilepsy Activity (MES-Test)
(§2) In the MES test (Ref., G. Villetti et al. Neuropharmacology 40(2001) 866-878), an electrical stimulus (mice: 50 mA, 60 Hz, 0.2 sec, and rats: 150 mA, 60 Hz, 0.2 sec in the test animal) supplied by an 11 A Shocker (IITC Life Science Company) was delivered through corneal electrodes. All mice or rats assigned to any electroshock at peak time were treated with each test compound sample which was dissolved in 20% tween 80 prepared by saline solvent applied orally before the test. […] Three doses of the test sample were administered orally to 9-18 animals (3-6 mice per dose) for evaluating the respective doses at which 50% of the animals were protected from seizure (ED50). The ED50 value (median effective close) was calculated by Litchfield and Wicoxon log-probit method which is a dose-response relationship. Experimental animals, male ICR mice and male SD rats, were purchased from OrientBio, Samtako, or Nara Biotech, Korea, and housed in cages (4-5 mice or 3 rats per cage) for 4-5 days. The range of mice body weight was between 19 and 25 grams and range of rats body weight was between 100 and 130 grams.
(§3) The obtained results are shown as mean±sem. The difference between the groups was statistically analyzed by ANOVA, and then further examined by Dunnett's test or Bonferroni test. If p is less than 0.05, it was determined that the difference between the groups had statistical significance.
(§4) The results of anti-epileptic activity of the sulfamate derivative compounds measured in the above Experimental Example are shown in the following Tables 4 and 5.

male ICR mice = experiment: MES test (anti-epilepsy activity), mice, oral (mMES po); conditions: Mus musculus; for ED50: mice, at peak time
Experimental: as §1, §2, §3, §4

Male Sprague-Dawley rats [1] = experiment: Lithium-pilocarpine induced epilepsy test (LI-PILO), prevention test, i.p.; conditions: for Anti-epileptogenesis (rat/ip) Protection %: 6 rats; for Anti-epileptogenesis (rat/ip) Peak Time / ED50: prevention, rat; for ED50: ip, at peak time, read-out: Anti-epileptogenesis (rat/ip) ED50(mg/kg)
Experimental: (§5) Biological Experimental Example 2: Lithium-Pilocarpine Induced Epilepsy Test (LI-PILO Test)
(§6) Male Sprague-Dawley rats (purchased from Orient Bio Inc. Korea) of body weight 175 grams were used for these studies and 3 rats per cage were housed for 4-5 days. On the day prior to SE, rats received 127 mg/kg lithium chloride (Sigma, St. Louis, Mo., U.S.A.) intraperitoneally (i.p.). Approximately 18-20 h following this treatment, rats were given an i.p. injection of 43 mg/kg pilocarpine (Sigma). An i.p. injection of 2 mg/kg methyl-scopolamine (Sigma) was administered 30 min prior to pilocarpine to block the effects of the muscarinic agonist on peripheral cholinergic receptors. Test drugs were dissolved in 20% tween80 (Sigma).
The drugs were administered intraperitoneally (i.p.) in a volume of 2 ul/g body weight. Pharmacological effects of all of the test materials were evaluated to compare test groups (n=6) with a control group (n=6). Control group was administered vehicle only. The efficacy was measured 0.5, 1, 2, or 4 hours after the administration of the test material. The time point that the most animals were protected was defined as peak time and the ED50 was determined at peak time. The animals were then transferred to observation cages and observed continuously for 90 min. Seizure was elicited in approximately 95% of the control group. Protection was defined as complete absence of seizure grade 3˜5 (Racine scale; Racine, 1972) over the 90-min observation period. The effective dose of the compound necessary to protect 50% of the animals against seizures compared to controls (i.e. ED50) was determined by a curve fitting program (Excel 2007, Microsoft).
(§7) The results of Lithium-pilocarpine induced epilepsy test of the sulfamate derivative compounds measured in the above Experimental Example are shown in the following Tables 6.

Male Sprague-Dawley rats [2] = experiment: Lithium-pilocarpine induced epilepsy test (LI-PILO), intervention, i.v. at SE onset; conditions: iv; rat, administered at SE onset; read-out: Therapeutic effect (min, rat/lv) ED50(mg/kg)
Experimental: as §5, §6
The drugs were administered intravenously (i.v.) in a volume of 2 ul/g body weight at SE onset. Pharmacological effects of all of the test materials were evaluated to compare test groups (n=3-6) with a control group (n=3-6). Control group was administered vehicle only. The animals were then transferred to observation cages and observed continuously for 90 min. Seizure was elicited in approximately 95% of the control group. […]
as §7

Male Sprague-Dawley rats [3] = experiment: Lithium-pilocarpine induced epilepsy test (LI-PILO), prevention test, i.p.; conditions: injection amount 30 mg/kg, 3 rats, 1 h
[4] = injection amount 150 mg/kg, 2 h

| SMILES | ED50 (male SD rats) | ED50 (male ICR mice) | Anti-epileptogenesis (rat/ip) Protection % (Male Sprague-Dawley rats [1]; [4]) | Anti-epileptogenesis (rat/ip) Peak Time (Male Sprague-Dawley rats [1]) | ED50 (Male Sprague-Dawley rats [2]) | ED50 (Male Sprague-Dawley rats [1]) | rMES(po) Protection % (male SD rats; injection amount 50 mg/kg, 6 rats) | responders at 50 mg/kg (male ICR mice; injection amount 50 mg/kg, 4 mice, read-out: mMES(po) Protection %) | Anti-epileptogenesis (rat/ip) Protection % (Male Sprague-Dawley rats [1]; injection amount 100 mg/kg, 1 h) | Anti-epileptogenesis (rat/ip) Protection % (Male Sprague-Dawley rats [1]; injection amount 100 mg/kg, 2 h) | Anti-epileptogenesis (rat/ip) Protection % (Male Sprague-Dawley rats [3]) | responders at 100 mg/kg (male ICR mice; injection amount 100 mg/kg, 3 mice, read-out: mMES(po) Protection %) |
| --- | --- | --- | --- | --- | --- | --- | --- | --- | --- | --- | --- | --- |
| CC1(C)O[C@H](c2ccccc2Cl)[C@@H](COS(N)(=O)=O)O1 [Example 1, ((4R,5R)-5-(2-chlorophenyl)-2,2-dimethyl-1,3-dioxolan-4-yl)methyl sulfamate] | 1.2 mg/kg | 6.5 mg/kg | (50%) | 2 h |  |  |  |  |  |  |  |  |
| CC1(C)O[C@@H](COS(N)(=O)=O)[C@H](c2ccccc2Cl)O1 [Example 2, ((4S, 5S)-5-(2-chlorophenyl)-2,2-dimethyl-1,3-dioxolan-4-yl)methyl sulfamate] | 3.5 mg/kg | 9 mg/kg |  | 4 h | 89 mg/kg | 97.1 mg/kg |  |  |  |  |  |  |
| CC1(C)O[C@H](c2ccccc2F)[C@@H](COS(N)(=O)=O)O1 [Example 15, ((4R, 5R)-5-(2-fluorophenyl)-2,2-dimethyl-1,3-dioxolan-4-yl)methyl sulfamate] |  |  | 150^b(16.6%) |  |  |  | 50^b(66.6%) | 100% | (16.6%) | (50%) |  |  |
| CC1(C)O[C@@H](COS(N)(=O)=O)[C@H](c2ccccc2I)O1 [Example 28, ((4S, 5S)-5-(2-iodophenyl)-2,2-dimethyl-1,3-dioxolan-4-yl)methyl sulfamate] | 32.7 mg/kg | 15 mg/kg |  | 1 h |  | 154 mg/kg |  |  |  |  |  |  |
| Cc1ncsc1[C@H]1OC(C)(C)O[C@@H]1COS(N)(=O)=O [Example 167, ((4R, 5S)-2,2-dimethyl-5-(4-methylthiazol-5-yl)-1,3-dioxolan-4-yl)methylsulfamate] |  |  |  | 1 h |  |  |  |  |  |  | 30^a(100%) | 100% |
